From patent US20210015098A1, “MOLECULES HAVING PESTICIDAL UTILITY, AND INTERMEDIATES, COMPOSITIONS, AND PROCESSES, RELATED THERETO” (DOW AGROSCIENCES LLC, priority 2018, published 2021)

Tests used:
[1] = test system: Cabbage Looper (Trichoplusia ni, TRIPNI); assay: Bioassays on Cabbage Looper (CL), 128-well diet tray assay; assay type: in vivo; details: Cabbage Looper, Table ABC Biological Results, read-out: CL (rating)
Description: (§1) Certain molecules disclosed in this document were tested against BAW and CL using procedures described in the following examples. In the reporting of the results, the “BAW & CL Rating Table” was used (See Table Section).
Bioassays on CL were conducted using a 128-well diet tray assay. One to five second instar CL larvae were placed in each well (3 mL) of the diet tray that had been previously filled with 1 mL of artificial diet to which 50 μg/cm^2 of the test molecule (dissolved in 50 μL of 90:10 acetone-water mixture) had been applied (to each of eight wells) and then allowed to dry. Trays were covered with a clear self-adhesive cover, vented to allow gas exchange, and held at 25° C., 14:10 light-dark for five to seven days. Percent mortality was recorded for the larvae in each well; activity in the eight wells was then averaged. The results are indicated in the table entitled “Table ABC: Biological Results” (See Table Section).

[2] = test system: Beet Armyworm (Spodoptera exigua, LAPHEG); assay: Bioassays on Beet Armyworm (BAW), 128-well diet tray assay; assay type: in vivo; details: Beet Armyworm, Table ABC Biological Results, read-out: BAW (rating)
Description: as §1
Bioassays on BAW were conducted using a 128-well diet tray assay. One to five second instar BAW larvae were placed in each well (3 mL) of the diet tray that had been previously filled with 1 mL of artificial diet to which 50 μg/cm^2 of the test molecule (dissolved in 50 μL of 90:10 acetone-water mixture) had been applied (to each of eight wells) and then allowed to dry. Trays were covered with a clear self-adhesive cover, vented to allow gas exchange, and held at 25° C., 14:10 light-dark for five to seven days. Percent mortality was recorded for the larvae in each well; activity in the eight wells was then averaged. The results are indicated in the table entitled “Table ABC: Biological Results” (See Table Section).

| SMILES | pest or weed control at 50 µg/cm2 [1] [%] | pest or weed control at 50 µg/cm2 [2] [%] |
| --- | --- | --- |
| O=C(C[S+]([O-])CC(F)(F)F)Nc1c(F)ccc(NC(=O)c2cc(NC(=O)[C@H]3[C@H](c4cc(Cl)c(Cl)c(Cl)c4)C3(Cl)Cl)ccc2Cl)c1F (stereo partly drawn) [F29, 2-Chloro-5-((1R,3R)-2,2-dichloro-3-(3,4,5-trichlorophenyl)cyclopropane-1-carboxamido)-N-(2,4-difluoro-3-(2-((2,2,2-trifluoroethyl)sulfinyl)acetamido)phenyl)benzamide] | 50 to 100 | 50 to 100 |
| O=C(C[S+]([O-])CC(F)(F)F)Nc1c(F)ccc(NC(=O)c2cc(NC(=O)[C@H]3[C@H](c4ccc(Cl)c(Cl)c4)C3(Cl)Cl)ccc2Cl)c1F (stereo partly drawn) [F30, 2-chloro-5-((R,3R)-2,2-dichloro-3-(3,4-dichlorophenyl)cyclopropane-1-carboxamido)-N-(2,4-difluoro-3-(2-((2,2,2-trifluoroethyl)sulfinyl)acetamido)phenyl)benzamide] | 50 to 100 | 50 to 100 |
| O=C(C[S+]([O-])CC(F)(F)F)Nc1c(F)ccc(NC(=O)c2cc(NC(=O)[C@H]3[C@H](c4ccc(F)c(Cl)c4)C3(Cl)Cl)ccc2Cl)c1F (stereo partly drawn) [F31, 2-Chloro-5-((1R,3R)-2,2-dichloro-3-(3-chloro-4-fluorophenyl)cyclopropane-1-carboxamido)-N-(2,4-difluoro-3-(2-((2,2,2-trifluoroethyl)sulfinyl)acetamido)phenyl)benzamide] | 50 to 100 | 50 to 100 |
| O=C(C[S+]([O-])C(F)(F)F)Nc1c(F)ccc(NC(=O)c2cc(NC(=O)[C@H]3[C@H](c4ccc(F)c(C(F)(F)F)c4)C3(Cl)Cl)ccc2Cl)c1F (stereo partly drawn) [F33, 2-chloro-5-((R,3R)-2,2-dichloro-3-(4-fluoro-3-(trifluoromethyl)phenyl)cyclopropane-1-carboxamido)-N-(2,4-difluoro-3-(2-((trifluoromethyl)sulfinyl)acetamido)phenyl)benzamide] | 50 to 100 | 50 to 100 |
| CC(C(=O)Nc1c(F)ccc(NC(=O)c2cc(NC(=O)[C@H]3[C@H](c4cc(Cl)c(Cl)c(Cl)c4)C3(Cl)Cl)ccc2Cl)c1F)S(=O)(=O)C(F)(F)F (stereo partly drawn) [F35, 2-Chloro-5-((1R,3R)-2,2-dichloro-3-(3,4,5-trichlorophenyl)cyclopropane-1-carboxamido)-N-(2,4-difluoro-3-(2-((trifluoromethyl)sulfonyl)propanamido)phenyl)benzamide] | 50 to 100 | 50 to 100 |
| O=C(CS(=O)(=O)C(F)(F)F)Nc1c(F)ccc(NC(=O)c2cc(NC(=O)[C@H]3[C@H](c4cc(Cl)c(Cl)c(Cl)c4)C3(Cl)Cl)ccc2Cl)c1F [F36, 2-Chloro-5-((1R,3R)-2,2-dichloro-3-(3,4,5-trichlorophenyl)cyclopropane-1-carboxamido)-N-(2,4-difluoro-3-(2-((trifluoromethyl)sulfonyl)acetamido)phenyl)benzamide] | 50 to 100 | 50 to 100 |
| CC(C(=O)Nc1c(F)ccc(NC(=O)c2cc(NC(=O)[C@H]3[C@H](c4ccc(Cl)c(Cl)c4)C3(Cl)Cl)ccc2Cl)c1F)S(=O)(=O)C(F)(F)F (stereo partly drawn) [F37, 2-Chloro-5-((1R,3R)-2,2-dichloro-3-(3,4-dichlorophenyl)cyclopropane-1-carboxamido)-N-(2,4-difluoro-3-(2-((trifluoromethyl)sulfonyl)propanamido)phenyl)benzamide] | 50 to 100 | 50 to 100 |
| O=C(CS(=O)(=O)C(F)(F)F)Nc1c(F)ccc(NC(=O)c2cc(NC(=O)[C@H]3[C@H](c4ccc(Cl)c(Cl)c4)C3(Cl)Cl)ccc2Cl)c1F [F38, 2-Chloro-5-((1R,3R)-2,2-dichloro-3-(3,4-dichlorophenyl)cyclopropane-1-carboxamido)-N-(2,4-difluoro-3-(2-((trifluoromethyl)sulfonyl)acetamido)phenyl)benzamide] | 50 to 100 | 50 to 100 |
| CC(C(=O)Nc1c(F)ccc(NC(=O)c2cc(NC(=O)[C@H]3[C@H](c4ccc(F)c(Cl)c4)C3(Cl)Cl)ccc2Cl)c1F)S(=O)(=O)C(F)(F)F (stereo partly drawn) [F39, 2-Chloro-5-((1R,3R)-2,2-dichloro-3-(3-chloro-4-fluorophenyl)cyclopropane-1-carboxamido)-N-(2,4-difluoro-3-(2-((trif1uoromethyl)sulfonyl)propanamido)phenyl)benzamide] | 50 to 100 | 50 to 100 |
| O=C(CS(=O)(=O)C(F)(F)F)Nc1c(F)ccc(NC(=O)c2cc(NC(=O)[C@H]3[C@H](c4ccc(F)c(Cl)c4)C3(Cl)Cl)ccc2Cl)c1F [F40] | 50 to 100 | 50 to 100 |
| O=C(CS(=O)(=O)CC(F)(F)F)Nc1c(F)ccc(NC(=O)c2cc(NC(=O)[C@H]3[C@H](c4cc(Cl)c(Cl)c(Cl)c4)C3(Cl)Cl)ccc2Cl)c1F [F41, 2-Chloro-5-((1R,3R)-2,2-dichloro-3-(3,4,5-trichlorophenyl)cyclopropane-1-carboxamido)-N-(2,4-difluoro-3-(2-((2,2,2-trifluoroethyl)sulfonyl)acetamido)phenyl)benzamide] | 50 to 100 | 50 to 100 |
| O=C(CS(=O)(=O)CC(F)(F)F)Nc1c(F)ccc(NC(=O)c2cc(NC(=O)[C@H]3[C@H](c4ccc(Cl)c(Cl)c4)C3(Cl)Cl)ccc2Cl)c1F [F42, 2-chloro-5-((1R,3R)-2,2-dichloro-3-(3,4-dichlorophenyl)cyclopropane-1-carboxamido)-N-(2,4-difluoro-3-(2-((2,2,2-trifluoroethyl)sulfonyl)acetamido)phenyl)benzamide] | 50 to 100 | 50 to 100 |
| O=C(CS(=O)(=O)CC(F)(F)F)Nc1c(F)ccc(NC(=O)c2cc(NC(=O)[C@H]3[C@H](c4ccc(F)c(Cl)c4)C3(Cl)Cl)ccc2Cl)c1F [F43, 2-Chloro-5-((1R,3R)-2,2-dichloro-3-(3-chloro-4-fluorophenyl)cyclopropane-1-carboxamido)-N-(2,4-difluoro-3-(2-((2,2,2-trifluoroethyl)sulfonyl)acetamido)phenyl)benzamide] | 50 to 100 | 50 to 100 |
| O=C(CS(=O)(=O)CC(F)(F)F)Nc1c(F)ccc(NC(=O)c2cc(NC(=O)[C@H]3[C@H](c4ccc(F)c(C(F)(F)F)c4)C3(Cl)Cl)ccc2Cl)c1F [F44, 2-Chloro-5-((1R,3R)-2,2-dichloro-3-(4-fluoro-3-(trifluoromethyl)phenyl)cyclopropane-1-carboxamido)-N-(2,4-difluoro-3-(2-((2,22-trifluoroethyl)sulfonyl)acetamido)phenyl)benzamide] | 50 to 100 | 50 to 100 |
| CCS(=O)(=O)C(C)C(=O)Nc1c(F)ccc(NC(=O)c2cc(NC(=O)[C@H]3[C@H](c4ccc(F)c(C(F)(F)F)c4)C3(Cl)Cl)ccc2Cl)c1F (stereo partly drawn) [F45, 2-chloro-5-((R,3R)-2,2-dichloro-3-(4-fluoro-3-(trifluoromethyl)phenyl)cyclopropane-1-carboxamido)-N-(3-(2-(ethylsulfonyl)propanamido)-2,4-difluorophenyl)benzamide] | 50 to 100 | 50 to 100 |
| O=C(CSC(F)(F)F)Nc1c(F)ccc(NC(=O)c2cc(NC(=O)[C@H]3[C@H](c4cccc(C(F)(F)F)c4)C3(Cl)Cl)ccc2Cl)c1F [F47, 2-Chloro-5-((1R,3R)-2,2-dichloro-3-(3-(trifluoromethyl)phenyl)cyclopropane-1-carboxamido)-N-(2,4-difluoro-3-(2-((trifluoromethyl)thio)acetamido)phenyl)benzamide] | 50 to 100 | 50 to 100 |
| O=C(CSC(F)(F)F)Nc1c(F)ccc(NC(=O)c2cc(NC(=O)[C@H]3[C@H](c4cc(F)cc(C(F)(F)F)c4)C3(Cl)Cl)ccc2Cl)c1F [F49, 2-Chloro-5-((1R,3R)-2,2-dichloro-3-(3-fluoro-5-(trifluoromethyl)phenyl)cyclopropane-1-carboxamido)-N-(2,4-difluoro-3-(2-((trifluoromethyl)thio)acetamido)phenyl)benzamide] | 50 to 100 | 50 to 100 |
| CSCC(=O)Nc1ccc(NC(=O)c2cc(NC(=O)[C@H]3[C@H](c4ccc(F)c(C(F)(F)F)c4)C3(Cl)Cl)ccc2Cl)c(F)c1 [F50, 2-Chloro-5-((1R,3R)-2,2-dichloro-3-(4-fluoro-3-(trifluoromethyl)phenyl)cyclopropane-1-carboxamido)-N-(2-fluoro-4-(2-(methylthio)acetamido)phenyl)benzamide] | 50 to 100 | 50 to 100 |
| O=C(CSC(F)(F)F)Nc1ccc(NC(=O)c2cc(NC(=O)[C@H]3[C@H](c4ccc(F)c(C(F)(F)F)c4)C3(Cl)Cl)ccc2Cl)c(F)c1 [F51, 2-Chloro-5-((1R,3R)-2,2-dichloro-3-(4-fluoro-3-(trifluoromethyl)phenyl)cyclopropane-1-carboxamido)-N-(2-fluoro-4-(2-((trifluoromethyl)thio)acetamido)phenyl)benzamide] | 50 to 100 | 50 to 100 |
